Test results taken from ChEMBL document CHEMBL1152094, “Res-701-1, synthesis and a reevaluation of its effects on the endothelin receptors” (Bioorg Med Chem Lett, 1995).
Starred links: 1 amine or outer side, 2 acyl side, 3 side chain; linkers in the order of their positions; H or OH if unused. Non-standard residues stand in square brackets, D forms with d. Residues, ends and D or L forms follow the SMILES beside them. X1 = O=C([C@@H](N[*:1])C1c2ccccc2CCc2ccccc21)[*:2]

Columns and labels:
[1] = molecular target: T1, Endothelin-1 receptor (Homo sapiens, UniProt P25101); experiment: Binding affinity in LtK cells stably transfected with human endothelin A (ETA) receptor; type: cell-based
T1 sequence (P25101 whole entry): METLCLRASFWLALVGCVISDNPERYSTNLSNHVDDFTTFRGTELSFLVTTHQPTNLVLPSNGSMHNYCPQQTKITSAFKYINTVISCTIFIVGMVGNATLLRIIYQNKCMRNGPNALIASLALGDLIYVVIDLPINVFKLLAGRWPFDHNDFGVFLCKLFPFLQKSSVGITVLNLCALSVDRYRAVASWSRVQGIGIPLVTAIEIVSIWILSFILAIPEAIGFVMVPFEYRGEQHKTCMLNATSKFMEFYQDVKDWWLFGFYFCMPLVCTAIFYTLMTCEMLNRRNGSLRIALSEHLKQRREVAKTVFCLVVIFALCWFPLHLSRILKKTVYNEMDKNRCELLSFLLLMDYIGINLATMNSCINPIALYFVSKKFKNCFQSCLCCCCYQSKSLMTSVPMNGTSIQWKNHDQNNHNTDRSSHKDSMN

[2] = molecular target: T2, Endothelin receptor type B (Homo sapiens, UniProt P24530); experiment: Binding affinity in Chinese hamster ovary (CHO) cells stably transfected with human endothelin B (ETB) receptor; type: cell-based
T2 sequence (P24530 whole entry): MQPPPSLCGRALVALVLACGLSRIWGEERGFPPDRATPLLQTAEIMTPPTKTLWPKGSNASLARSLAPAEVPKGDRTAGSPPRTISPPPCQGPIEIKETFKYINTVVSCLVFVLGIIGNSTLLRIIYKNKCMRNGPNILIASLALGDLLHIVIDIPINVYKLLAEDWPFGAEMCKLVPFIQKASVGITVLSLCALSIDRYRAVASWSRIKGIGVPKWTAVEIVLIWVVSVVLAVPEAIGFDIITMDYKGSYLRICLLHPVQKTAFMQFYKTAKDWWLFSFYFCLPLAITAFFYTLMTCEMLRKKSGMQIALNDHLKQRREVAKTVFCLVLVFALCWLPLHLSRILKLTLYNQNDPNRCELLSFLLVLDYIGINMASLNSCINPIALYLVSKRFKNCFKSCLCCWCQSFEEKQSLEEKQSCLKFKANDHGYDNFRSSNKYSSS

SMILES | IC50 [1] [µM] | IC50 [2] [µM]
NC(=O)C[C@H](NC(=O)[C@H](Cc1ccccc1)NC(=O)[C@@H](N)Cc1ccccc1)C(=O)N[C@@H](Cc1ccc(O)cc1)C(=O)N[C@@H](Cc1ccc(O)cc1)C(=O)N[C@@H](Cc1c[nH]c2ccccc12)C(=O)O (H-FFNYYW-OH) | > 25 | > 25
C[C@@H]1NC(=O)[C@H]([C@@H](C)O)NC(=O)CNC(=O)[C@H](Cc2c[nH]cn2)NC(=O)[C@H](Cc2c[nH]c3ccccc23)NC(=O)[C@H](CC(N)=O)NC(=O)CNC(=O)C[C@@H](C(=O)N[C@@H](Cc2c[nH]c3ccccc23)C(=O)N[C@@H](Cc2ccccc2)C(=O)N[C@@H](Cc2ccccc2)C(=O)N[C@@H](CC(N)=O)C(=O)N[C@@H](Cc2ccc(O)cc2)C(=O)N[C@@H](Cc2ccc(O)cc2)C(=O)N[C@@H](Cc2c[nH]c3ccccc23)C(=O)O)NC(=O)[C@@H]2CCCN2C1=O (stereo in doubt; 2) | 7.8 | 6.5
CC(=O)N[C@H](C(=O)N[C@@H](Cc1ccccc1)C(=O)N[C@@H](CC(N)=O)C(=O)N[C@@H](Cc1ccc(O)cc1)C(=O)N[C@@H](Cc1ccc(O)cc1)C(=O)N[C@@H](Cc1c[nH]c2ccccc12)C(=O)O)C1c2ccccc2CCc2ccccc21 (Ac-[X1]FNYYW-OH) | 1.9 | 4.3
NC(=O)C[C@H](NC(=O)[C@H](Cc1ccccc1)NC(=O)[C@H](Cc1ccccc1)NC(=O)[C@@H](N)Cc1c[nH]c2ccccc12)C(=O)N[C@@H](Cc1ccc(O)cc1)C(=O)N[C@@H](Cc1ccc(O)cc1)C(=O)N[C@@H](Cc1c[nH]c2ccccc12)C(=O)O (H-WFFNYYW-OH) | 2.4 | 15
NC(=O)C[C@H](NC(=O)[C@H](Cc1ccccc1)NC(=O)[C@@H](N)C1c2ccccc2CCc2ccccc21)C(=O)N[C@@H](Cc1ccc(O)cc1)C(=O)N[C@@H](Cc1ccc(O)cc1)C(=O)N[C@@H](Cc1c[nH]c2ccccc12)C(=O)O (H-[X1]FNYYW-OH) | 9.5 | 13
C[C@@H]1NC(=O)[C@H]([C@@H](C)O)NC(=O)CNC(=O)[C@H](Cc2c[nH]cn2)NC(=O)[C@H](Cc2c[nH]c3ccccc23)NC(=O)[C@H](CC(N)=O)NC(=O)CNC(=O)C[C@@H](C(=O)N[C@@H](Cc2c[nH]c3ccccc23)C(=O)N[C@@H](Cc2ccccc2)C(=O)N[C@@H](Cc2ccccc2)C(=O)N[C@@H](CC(N)=O)C(=O)N[C@@H](Cc2ccc(O)cc2)C(=O)N[C@@H](Cc2ccc(O)cc2)C(=O)N[C@@H](Cc2c[nH]c3ccccc23)C(=O)O)NC(=O)[C@@H]2CCCN2C1=O (stereo in doubt; 1) | > 5 | 0.01
CC(=O)N[C@@H](Cc1c[nH]c2ccccc12)C(=O)N[C@@H](Cc1ccccc1)C(=O)N[C@@H](Cc1ccccc1)C(=O)N[C@@H](CC(N)=O)C(=O)N[C@@H](Cc1ccc(O)cc1)C(=O)N[C@@H](Cc1ccc(O)cc1)C(=O)N[C@@H](Cc1c[nH]c2ccccc12)C(=O)O | 0.25 | 7.6
C[C@H](NC(=O)[C@@H](NC(=O)CNC(=O)[C@H](Cc1c[nH]cn1)NC(=O)[C@@H](N)Cc1c[nH]c2ccccc12)[C@@H](C)O)C(=O)N1CCC[C@H]1C(=O)N[C@@H](CC(=O)O)C(=O)N[C@@H](Cc1c[nH]c2ccccc12)C(=O)N[C@@H](Cc1ccccc1)C(=O)N[C@@H](Cc1ccccc1)C(=O)N[C@@H](CC(N)=O)C(=O)N[C@@H](Cc1ccc(O)cc1)C(=O)N[C@@H](Cc1ccc(O)cc1)C(=O)N[C@@H](Cc1c[nH]c2ccccc12)C(=O)O (H-WHGTAPDWFFNYYW-OH) | > 2.5 | > 2.5
C[C@H](NC(=O)[C@@H](NC(=O)CNC(=O)[C@H](Cc1c[nH]cn1)NC(=O)[C@H](Cc1c[nH]c2ccccc12)NC(=O)[C@H](CC(N)=O)NC(=O)CN)[C@@H](C)O)C(=O)N1CCC[C@H]1C(=O)N[C@@H](CC(=O)O)C(=O)N[C@@H](Cc1c[nH]c2ccccc12)C(=O)N[C@@H](Cc1ccccc1)C(=O)N[C@@H](Cc1ccccc1)C(=O)N[C@@H](CC(N)=O)C(=O)N[C@@H](Cc1ccc(O)cc1)C(=O)N[C@@H](Cc1ccc(O)cc1)C(=O)N[C@@H](Cc1c[nH]c2ccccc12)C(=O)O | > 2.5 | > 2.5
CC(=O)N[C@H](Cc1c[nH]c2ccccc12)C(=O)N[C@@H](Cc1ccccc1)C(=O)N[C@@H](Cc1ccccc1)C(=O)N[C@@H](CC(N)=O)C(=O)N[C@@H](Cc1ccc(O)cc1)C(=O)N[C@@H](Cc1ccc(O)cc1)C(=O)N[C@@H](Cc1c[nH]c2ccccc12)C(=O)O | 8.1 | 14
